Data: PubChem BioAssay (NCI)
“And” between values parts separate entries of the source, which are not always exact repeats. Equal values may be shown once.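 Tested at 5 concentrations; 48 h exposure; 96-well plates; endpoints linearly interpolated, else capped at highest concentration. GI50: concentration for 50% inhibition of growth. The concentration for full growth arrest is given as TGI.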

Key:
Experiment in all cases: inhibition of tumour cell growth, NCI panel, 48 h
K-562 leukemia = system: K-562 leukemia
BT-549 breast = system: BT-549 breast
SK-MEL-5 melanoma = system: SK-MEL-5 melanoma
SF-539 CNS = system: SF-539 CNS
NCI-H460 lung = system: NCI-H460 lung
M14 melanoma = system: M14 melanoma
HS 578T breast = system: HS 578T breast
NCI-H226 lung = system: NCI-H226 lung
SNB-75 CNS = system: SNB-75 CNS
CAKI-1 renal = system: CAKI-1 renal

For Cc1csc(CP(=O)(OC(C)C)OC(C)C)n1, the TGI (K-562 leukemia) was > 100 µM, the TGI (BT-549 breast) was > 100 µM and the TGI (SK-MEL-5 melanoma) was > 100 µM. The TGI (SF-539 CNS) was > 100 µM, the TGI (NCI-H460 lung) was > 100 µM and the TGI (M14 melanoma) was > 100 µM. The TGI (HS 578T breast) was > 100 µM, the TGI (NCI-H226 lung) was > 100 µM and the TGI (SNB-75 CNS) was > 100 µM. For the same molecule, the TGI (CAKI-1 renal) was > 100 µM.
O=C1CCCC1C(O)(C(F)(F)Cl)C(F)(F)Cl (stereo not drawn) was tested, and the TGI (K-562 leukemia) was > 10 µM, the TGI (BT-549 breast) was > 10 µM and the TGI (SK-MEL-5 melanoma) was > 10 µM. The TGI (SF-539 CNS) was > 10 µM, the TGI (NCI-H460 lung) was > 10 µM and the TGI (M14 melanoma) was > 10 µM. For the same molecule, the TGI (HS 578T breast) was > 10 µM, the TGI (NCI-H226 lung) was > 10 µM and the TGI (SNB-75 CNS) was > 10 µM. The TGI (CAKI-1 renal) was > 10 µM.
CN1CCN2CCN(C)CCN(CC1)CC2 was tested, and the TGI (K-562 leukemia) was > 100 µM, the TGI (BT-549 breast) was > 100 µM and the TGI (SK-MEL-5 melanoma) was > 100 µM. For the same molecule, the TGI (SF-539 CNS) was > 100 µM, the TGI (NCI-H460 lung) was > 100 µM and the TGI (M14 melanoma) was > 100 µM. The TGI (HS 578T breast) was > 100 µM, the TGI (NCI-H226 lung) was > 100 µM and the TGI (SNB-75 CNS) was > 100 µM. For the same molecule, the TGI (CAKI-1 renal) was > 100 µM.
In the case of COc1ccc2oc(=O)c(-c3nc4ccccc4s3)cc2c1, the TGI (K-562 leukemia) is reported as > 100 µM, the TGI (BT-549 breast) is reported as > 100 µM and the TGI (SK-MEL-5 melanoma) is reported as > 100 µM. The TGI (SF-539 CNS) was 13.7 µM, the TGI (NCI-H460 lung) was > 100 µM and the TGI (M14 melanoma) was > 58.3 µM. The TGI (HS 578T breast) was > 95.8 µM, the TGI (NCI-H226 lung) was > 63.1 µM and the TGI (SNB-75 CNS) was 27.5 µM. The TGI (CAKI-1 renal) was > 51.8 µM.
With COC(=O)/C=C/c1cc(OC)c2c(c1)C(C(=O)OC)C(c1ccc(O)c(OC)c1)O2 (stereo not drawn) the GI50 (K-562 leukemia) was 1510 nM and 1110 nM and 579 nM, the TGI (K-562 leukemia) was > 50.3 µM and the GI50 (BT-549 breast) was 4.54 µM and 1.87 µM and 18.2 µM. The TGI (BT-549 breast) was > 42.3 µM and 18.9 µM and > 90.5 µM, the TGI (SF-539 CNS) was 9.24 µM and 8.25 µM and 10.4 µM and the GI50 (NCI-H460 lung) was 13.9 µM and 7.71 µM and 5.24 µM. For the same molecule, the TGI (NCI-H460 lung) was > 100 µM and > 47.9 µM and 27.8 µM, the TGI (M14 melanoma) was > 100 µM and the GI50 (HS 578T breast) was 5.34 µM. For the same molecule, the TGI (HS 578T breast) was > 88.1 µM, the GI50 (NCI-H226 lung) was 32.9 µM and 10.3 µM and 4.53 µM and the TGI (NCI-H226 lung) was > 100 µM and > 88.2 µM and 12.7 µM. For the same molecule, the GI50 (SNB-75 CNS) was 910 nM, the TGI (SNB-75 CNS) was 4.36 µM and 6.67 µM and 15.2 µM and the GI50 (CAKI-1 renal) was 2630 nM and 2040 nM and 12200 nM. The TGI (CAKI-1 renal) was 14.3 µM and 11.9 µM and > 74 µM.
With Cc1nc2c(ccc3[nH]c4ccccc4c32)s1 the TGI (K-562 leukemia) was > 100 µM, the TGI (BT-549 breast) was 57.3 µM and the TGI (SK-MEL-5 melanoma) was 29.6 µM. The TGI (SF-539 CNS) was > 100 µM, the TGI (NCI-H460 lung) was 79.4 µM and the TGI (M14 melanoma) was 50.2 µM. For the same molecule, the TGI (HS 578T breast) was 46.5 µM, the TGI (NCI-H226 lung) was 98.7 µM and the TGI (SNB-75 CNS) was > 100 µM. The TGI (CAKI-1 renal) was > 100 µM.
With Nc1[nH]nc2c1Cc1c(n(Cc3ccc(Cl)cc3)c3ccccc13)C(=O)N2 the TGI (K-562 leukemia) was > 100 µM, the TGI (BT-549 breast) was 36.6 µM and the TGI (SK-MEL-5 melanoma) was 17.6 µM. The TGI (SF-539 CNS) was 29.9 µM, the TGI (NCI-H460 lung) was 27.3 µM and the TGI (M14 melanoma) was 26 µM. For the same molecule, the TGI (HS 578T breast) was 40.2 µM, the TGI (NCI-H226 lung) was 44.7 µM and the TGI (SNB-75 CNS) was 30.6 µM. For the same molecule, the TGI (CAKI-1 renal) was 23.5 µM.
For Cc1ccc(S(=O)(=O)N/N=C2/C3CC4CCC2C4C3)cc1 (stereo not drawn), the TGI (BT-549 breast) was > 100 µM, the TGI (SK-MEL-5 melanoma) was > 100 µM and the TGI (SF-539 CNS) was > 100 µM. For the same molecule, the TGI (NCI-H460 lung) was > 100 µM, the TGI (M14 melanoma) was > 100 µM and the TGI (HS 578T breast) was > 100 µM. The TGI (NCI-H226 lung) was > 100 µM, the TGI (SNB-75 CNS) was > 100 µM and the TGI (CAKI-1 renal) was > 100 µM.
In the case of CCN(CC)CCCNc1c2cc(OC)ccc2nc2cccc([N+](=O)[O-])c12, the TGI (K-562 leukemia) is reported as 0.104 µM, the TGI (BT-549 breast) is reported as 0.49 µM and the TGI (SK-MEL-5 melanoma) is reported as 0.238 µM. For the same molecule, the TGI (SF-539 CNS) was 0.304 µM, the TGI (NCI-H460 lung) was 0.0596 µM and the TGI (M14 melanoma) was 0.24 µM. For the same molecule, the TGI (HS 578T breast) was 0.448 µM, the TGI (NCI-H226 lung) was 0.51 µM and the TGI (SNB-75 CNS) was 0.354 µM. For the same molecule, the TGI (CAKI-1 renal) was 0.673 µM.
COc1ccc(-c2nc3ccccc3c(=O)[nH]2)cc1OC was tested, and the TGI (K-562 leukemia) was > 100 µM, the TGI (BT-549 breast) was > 100 µM and the TGI (SK-MEL-5 melanoma) was > 100 µM. For the same molecule, the TGI (SF-539 CNS) was 80.5 µM, the TGI (NCI-H460 lung) was > 100 µM and the TGI (M14 melanoma) was > 100 µM. For the same molecule, the TGI (HS 578T breast) was 83.1 µM, the TGI (NCI-H226 lung) was 55.8 µM and the TGI (SNB-75 CNS) was 55.6 µM. For the same molecule, the TGI (CAKI-1 renal) was > 100 µM.
O=C(CN1CCOCC1)c1ccc2c(c1)oc(=O)n2CCN1CCCCC1 was tested, and the TGI (K-562 leukemia) was > 100 µM, the TGI (BT-549 breast) was > 100 µM and the TGI (SK-MEL-5 melanoma) was > 100 µM. For the same molecule, the TGI (SF-539 CNS) was > 100 µM, the TGI (NCI-H460 lung) was > 100 µM and the TGI (M14 melanoma) was > 100 µM. For the same molecule, the TGI (HS 578T breast) was > 100 µM, the TGI (NCI-H226 lung) was > 100 µM and the TGI (SNB-75 CNS) was 56.2 µM. The TGI (CAKI-1 renal) was > 100 µM.
Cc1c(OCc2cccc3ccccc23)ccc2c(=O)cc(S)oc12 was tested, and the TGI (K-562 leukemia) was > 100 µM, the TGI (BT-549 breast) was > 100 µM and the TGI (SK-MEL-5 melanoma) was > 100 µM. The TGI (SF-539 CNS) was 65.2 µM, the TGI (NCI-H460 lung) was > 100 µM and the TGI (M14 melanoma) was > 100 µM. The TGI (HS 578T breast) was > 100 µM, the TGI (NCI-H226 lung) was > 100 µM and the TGI (SNB-75 CNS) was > 100 µM. For the same molecule, the TGI (CAKI-1 renal) was > 100 µM.
Nc1nc(=O)n(C2CC(O)C(CO)O2)c2nc(-c3ccc(-c4ccccc4)cc3)cnc12 (stereo not drawn) was tested, and the TGI (K-562 leukemia) was > 100 µM, the TGI (BT-549 breast) was > 100 µM and the TGI (SK-MEL-5 melanoma) was > 100 µM. The TGI (SF-539 CNS) was > 100 µM, the TGI (NCI-H460 lung) was > 100 µM and the TGI (M14 melanoma) was > 100 µM. For the same molecule, the TGI (HS 578T breast) was 93.9 µM, the TGI (NCI-H226 lung) was 64.9 µM and the TGI (SNB-75 CNS) was 66.8 µM. For the same molecule, the TGI (CAKI-1 renal) was > 100 µM.
CCOC1=NC(C(F)(F)F)(C(F)(F)F)N=C(/N=C(/N)N(C)C(C(C)C)P(=O)(OC(C)C)OC(C)C)O1 (stereo not drawn) was tested, and the TGI (K-562 leukemia) was > 100 µM, the TGI (BT-549 breast) was > 100 µM and the TGI (SK-MEL-5 melanoma) was > 100 µM. For the same molecule, the TGI (SF-539 CNS) was > 100 µM, the TGI (NCI-H460 lung) was > 100 µM and the TGI (M14 melanoma) was > 100 µM. The TGI (HS 578T breast) was > 100 µM, the TGI (NCI-H226 lung) was > 100 µM and the TGI (SNB-75 CNS) was > 100 µM. For the same molecule, the TGI (CAKI-1 renal) was > 100 µM.
For Cc1nc2ccccc2n1Cc1ccc(NC(=S)NC2CCCCC2)cc1, the TGI (K-562 leukemia) was > 100 µM, the TGI (BT-549 breast) was > 100 µM and the TGI (SK-MEL-5 melanoma) was > 51.4 µM. For the same molecule, the TGI (SF-539 CNS) was > 100 µM, the TGI (NCI-H460 lung) was > 100 µM and the TGI (M14 melanoma) was > 100 µM. The TGI (HS 578T breast) was > 100 µM, the TGI (NCI-H226 lung) was > 100 µM and the TGI (SNB-75 CNS) was > 84.7 µM. For the same molecule, the TGI (CAKI-1 renal) was > 100 µM.
CCN(CC)C(=O)N1CN(c2ccccc2)C2(CCN(CCCC3(c4ccc(F)cc4)OCCO3)CC2)C1=O was tested, and the TGI (BT-549 breast) was 28.9 µM, the TGI (SK-MEL-5 melanoma) was 26.4 µM and the TGI (SF-539 CNS) was 32 µM. For the same molecule, the TGI (M14 melanoma) was > 100 µM, the TGI (HS 578T breast) was 37.4 µM and the TGI (NCI-H226 lung) was 53.5 µM. The TGI (SNB-75 CNS) was 45.3 µM and the TGI (CAKI-1 renal) was > 100 µM.
